Reference: the RepoRT retention time repository (doi:10.1016/j.jchromb.2020.122105)

Experiments:
Settings in all cases: stereoisomer not certain
[1] = RP, Waters ACQUITY UPLC BEH C18, 100 × 2.1 mm, 1.7 µm, 0.1 mL/min, estimated dead time 2.2 min; A: water + 0.1% formic acid, pH 3; B: methanol + 0.1% formic acid, pH 3; gradient (min/%B) 0/5 5/5 25/100 30/100 30.1/5 35/5
[2] = RP, Waters CORTECS T3, 100 × 2.1 mm, 2.7 µm, 0.15 mL/min, estimated dead time 1.5 min; A: water + 0.1% formic acid, pH 3; B: methanol + 0.1% formic acid, pH 3; gradient (min/%B) 0/0 1/0 6/5 30/100 35/100 35.1/0 40/0
[3] = RP, Waters CORTECS T3, 100 × 2.1 mm, 2.7 µm, 0.3 mL/min, estimated dead time 0.73 min; A: water + 0.1% formic acid, pH 3; B: methanol + 0.1% formic acid, pH 3; gradient (min/%B) 0/0 1/0 6/5 30/100 35/100 35.1/0 40/0
[4] = as above; remark: listed apart in the source
[5] = RP, Waters ACQUITY UPLC BEH C18, 100 × 2.1 mm, 1.7 µm, 0.2 mL/min, estimated dead time 1.1 min; A: water + 0.1% formic acid, pH 3; B: methanol + 0.1% formic acid, pH 3; gradient (min/%B) 0/5 5/5 25/100 30/100 30.1/5 35/5
[6] = RP, Waters CORTECS T3, 100 × 2.1 mm, 2.7 µm, 0.3 mL/min, estimated dead time 0.73 min; A: water + 0.1% formic acid, pH 3; B: methanol + 0.1% formic acid, pH 3; gradient (min/%B) 0/5 5/5 25/100 30/100 30.1/5 35/5
[7] = RP, Waters ACQUITY UPLC BEH C18, 100 × 2.1 mm, 1.7 µm, 0.1 mL/min, estimated dead time 2.2 min; A: water + 0.045% formic acid + 0.11% ammonium hydroxide, pH 7; B: methanol; gradient (min/%B) 0/5 5/5 25/95 25.1/100 35/100 35.1/5 45/5
[8] = RP, Waters CORTECS T3, 100 × 2.1 mm, 2.7 µm, 0.2 mL/min, estimated dead time 1.1 min; A: water + 0.045% formic acid + 0.11% ammonium hydroxide, pH 7; B: methanol; gradient (min/%B) 0/5 5/5 25/95 25.1/100 35/100 35.1/5 45/5
[9] = RP, Waters CORTECS T3, 100 × 2.1 mm, 2.7 µm, 0.25 mL/min, estimated dead time 0.88 min; A: water + 0.1% formic acid, pH 3; B: methanol + 0.1% formic acid, pH 3; gradient (min/%B) 0/5 5/5 25/95 25.1/100 35/100 35.1/5 45/5
[10] = RP, Waters CORTECS T3, 100 × 2.1 mm, 2.7 µm, 0.2 mL/min, estimated dead time 1.1 min; A: water + 0.1% formic acid, pH 3; B: methanol + 0.1% formic acid, pH 3; gradient (min/%B) 0/0 1/0 6/5 30/100 35/100 35.1/0 40/0
[11] = RP, Waters CORTECS T3, 100 × 2.1 mm, 2.7 µm, 0.3 mL/min, estimated dead time 0.73 min; A: water + 0.1% formic acid, pH 3; B: methanol + 0.1% formic acid, pH 3; gradient (min/%B) 0/5 5/5 25/95 25.1/100 35/100 35.1/5 45/5
[12] = RP, Waters CORTECS T3, 100 × 2.1 mm, 2.7 µm, 0.2 mL/min, estimated dead time 1.1 min; A: water + 0.1% formic acid, pH 3; B: methanol + 0.1% formic acid, pH 3; gradient (min/%B) 0/5 5/5 25/95 25.1/100 35/100 35.1/5 45/5
[13] = RP, Waters CORTECS T3, 100 × 2.1 mm, 2.7 µm, 0.2 mL/min, estimated dead time 1.1 min; A: water + 0.1% formic acid, pH 3; B: methanol + 0.1% formic acid, pH 3; gradient (min/%B) 0/0 1/0 6/5 30/100 35/100 35.1/0 40/0; remark: listed apart in the source
[14] = RP, Waters CORTECS T3, 100 × 2.1 mm, 2.7 µm, 0.1 mL/min, estimated dead time 2.2 min; A: water + 0.1% formic acid, pH 3; B: methanol + 0.1% formic acid, pH 3; gradient (min/%B) 0/5 5/5 25/95 25.1/100 35/100 35.1/5 45/5
[15] = RP, Waters ACQUITY UPLC BEH C18, 100 × 2.1 mm, 1.7 µm, 0.1 mL/min, estimated dead time 2.2 min; A: water + 0.1% formic acid, pH 3; B: methanol + 0.1% formic acid, pH 3; gradient (min/%B) 0/5 5/5 25/95 25.1/100 35/100 35.1/5 45/5
[16] = HILIC, Merck SeQuant ZIC-HILIC, 150 × 2.1 mm, 5 µm, 0.75 mL/min, estimated dead time 0.44 min; A: water + 0.1% acetic acid + 10 mM ammonium acetate, pH 4; B: 5% water + 95% acetonitrile + 0.1% acetic acid + 10 mM ammonium acetate, pH 4; gradient (min/%B) 0/95 5/95 20/57 25/57 30/95 40/95
[17] = HILIC, Merck SeQuant ZIC-HILIC, 150 × 2.1 mm, 5 µm, 0.75 mL/min, estimated dead time 0.44 min; A: water + 10 mM ammonium formate, pH 6; B: 5% water + 95% acetonitrile + 10 mM ammonium formate, pH 6; gradient (min/%B) 0/95 5/95 20/57 25/57 30/95 40/95

SMILES	LC retention time [1]	LC retention time [2]	LC retention time [3]	LC retention time [4]	LC retention time [5]	LC retention time [6]	LC retention time [7]	LC retention time [8]	LC retention time [9]	LC retention time [10]	LC retention time [11]	LC retention time [12]	LC retention time [13]	LC retention time [14]	LC retention time [15]	LC retention time [16]	LC retention time [17]
Cc1cc2nc3c(=O)[nH]c(=O)nc-3n(CC(O)C(O)C(O)CO)c2cc1C (stereo unspecified) [RIBOFLAVIN]	15.5 min	15.8 min	13.5 min	13.5 min	12.7 min	11.7 min	15.7 min	13.2 min	12.4 min	14.7 min	11.9 min	17.7 min	14.7 min	16 min	15.7 min		
O=C(O)c1cc(=O)c2ccccc2[nH]1 [4-HYDROXY-2-QUINOLINECARBOXYLIC ACID]	14.2 min	13.6 min	10.7 min	10.8 min	10.9 min	9.17 min	11.7 min	7.9 min	9.94 min	12.2 min	9.2 min	15.8 min	12.3 min	14.2 min	14.3 min		
CC(=O)N[C@H](Cc1c[nH]c2ccccc12)C(=O)O [N-ACETYL-D-TRYPTOPHAN]	17.3 min	17 min	14.2 min	14.2 min	14 min	12.3 min	14.1 min	10.4 min	13.2 min	15.7 min	12.5 min	19.2 min	15.7 min	17.3 min		8.28 min	8.49 min
CC1NC(=O)NC1CCCCCC(=O)O (stereo unspecified) [DETHIOBIOTIN]	16.9 min	16.9 min	14.3 min	14.3 min	13.8 min	12.4 min	12.5 min	9.32 min	13.2 min	15.7 min	12.6 min	19 min	15.7 min	17.1 min			3.19 min
O=C(O)c1cc(=O)c2cccc(O)c2[nH]1 [XANTHURENIC ACID]	13.8 min	13.4 min	10.5 min	10.5 min	10.4 min	8.94 min			9.71 min	12 min	8.97 min	15.5 min	12.1 min	13.9 min	13.8 min	9.68 min	9.77 min
N[C@@H](Cc1cc(I)c(Oc2ccc(O)cc2)c(I)c1)C(=O)O [3,5-DIIODO-L-THYRONINE]	19.7 min	20.4 min	18 min	18 min	16.9 min	15.5 min	20.4 min	17.2 min	16.4 min	19.3 min	15.9 min	22.3 min	19.2 min	19.9 min	20.2 min		8.69 min
Nc1nc2nccnc2c(=O)[nH]1 [PTERIN]	4.78 min	5.95 min	2.75 min	3.11 min	2.44 min	1.73 min		1.35 min	2.11 min	4.26 min	1.68 min	8.07 min		4.93 min	2.72 min	5.43 min	5.74 min
O=c1[nH]c(=O)c2[nH]cnc2[nH]1 [XANTHINE]		4.65 min	2.17 min	2.39 min	2.14 min	1.53 min			1.85 min	3.29 min	1.51 min		3.32 min	4.3 min	2.72 min	5.71 min	5.7 min
CC(C)=CCNc1ncnc2nc[nH]c12 [N6-(DELTA2-ISOPENTENYL)-ADENINE]	16.9 min	16.5 min	13.6 min	13.6 min	13.4 min	11.8 min	20.6 min	16.9 min	12.6 min	15 min	12 min	18.8 min	15.1 min	17 min	17.3 min	0.62 min	0.64 min
CC(C)(CO)C(O)C(=O)NCCC(=O)O [D-PANTOTHENIC ACID]	11.5 min	10.9 min	7.94 min	8.1 min	8.01 min	5.2 min			6.32 min	9.51 min	5.14 min	13 min	9.6 min	11.2 min		9.3 min	10.5 min
